# In publication PMC4550478, “Metronidazole-triazole conjugates: Activity against Clostridium difficile and parasites” (European Journal of Medicinal Chemistry, 2015):
# Like-named read-outs stand apart in the source and are kept apart here.
# Tests used:
# [1] = test system: C. difficile VPI10463 ATCC 43255; assay: MIC broth microdilution, C. difficile VPI 10463; assay type: cell-based, Clostridium difficile; conditions: Clostridioides difficile, ATCC 43255 / ATCC BAA-1803; VPI 10463, MtzS, 24 h, median of at least n = 4
# Experimental: (§1) All compounds were tested for activity against a set of anaerobic C. difficile bacteria (630 ATCC BAA-1382, NAP1/027 M7404, NAP1/027 ATCC BAA-1803, VPI10463 ATCC 43255, CD26A54_S and CD26A54_R) and representative ESKAPE pathogens S. aureus (MRSA ATCC 43300), E. coli (ATCC 25922), K. pneumoniae (ATCC 700603), A. baumannii (ATCC 19606) and P. aeruginosa (ATCC 27853) using a standard broth microdilution assay. Selected compounds were tested for activity against H. pylori strains (26695, and clinical isolates MtzS 13/25, MtzR 98/285 and MtzR 13/61) using agar plate dilution, and for antimicrobial activity against […] Gram-positive bacterial strains: Enterococcus faecalis (VanA clinical isolate), Enterococcus faecium (MDR VanA ATCC 51559), Streptococcus pneumoniae (MDR ATCC 700677), S. aureus (MRSA ATCC 43300, MRSA clinical isolate, MRSA/DRSA clinical isolate, GISA NARSA NRS 1, GISA NARSA NRS 17, VRSA NARSA VRS1, VRSA NARSA VRS4 and VRSA NARSA VRS10) using broth microdilution. C. difficile strains were grown at 37 °C in a COY anaerobic chamber (5% H2, 10% CO2, 85% N2). H. pylori strains were grown at 37 °C under a microaerobic atmosphere (5% O2, 10% CO2). All facultative anaerobic bacteria were grown at 37 °C with normal atmospheric oxygen levels. All experiments were performed in duplicate with metronidazole, vancomycin, linezolid or colistin as positive controls for relevant strains (see Table 1). Positive growth control of bacteria and DMSO as well as a negative control of only media were included for every plate. Full assay details are provided in the supplementary information.
# (§2) C. difficile ATCC BAA-1382, ATCC BAA-1803, ATCC 43255 and M7404 heat shocked spore stocks (10 µL) were transferred into the anaerobic chamber and 10 µL streaked onto pre-reduced (at least 2.5 hr in anaerobic chamber) BHIS agar plates supplemented with 0.1% w/v sodium taurocholate (BHIS(TA)). Plates were incubated for 24 hours prior to assay to give colonies of size 1-3mm diameter with characteristic uneven borders.
# (§3) The minimum inhibition concentration was determined according to the CLSI Methods with modifications in broth and inoculum for C. difficile according to Babakhani et al.^7,8 Briefly, compounds were prepared to 20X final concentration in 100% water, 60% DMSO and 40% water or 60% DMSO and 40% media. The compounds along with standard antibiotics were serially diluted two-fold across the wells of 96-well non-binding surface plates (Non binding surface, Corning). The plates were placed in the anaerobic chamber overnight to reduce. C. difficile bacteria from BHIS(TA) agar plates were cultured anaerobically in BHIS at 37 °C overnight. A sample of culture was then diluted 40-fold in BHIS broth and incubated at 37 °C for approximately 4.5 hrs. The resultant mid-log phase culture (OD600= 0.5-0.6) was diluted to the final concentration of ~1×10^6 CFU/mL, then 50 µL was added to each well of the compound-containing 96-well plates. This gave final cell concentration of 5×10^5 CFU/mL, final volume 100 µL and 3% maximum DMSO concentration. Compound concentration was typically from 64 to 0.03 µg/mL. An antibiotic standard was included on each 96 well plate as well as a positive growth control (no compound) and sterility control (no bacteria). All the plates were covered and incubated at 37 °C for 24 h. MICs were the lowest concentration showing no visible growth.
# [2] = test system: C. difficile 630 ATCC BAA-1382; assay: MIC broth microdilution, C. difficile 630; assay type: cell-based, Clostridium difficile; conditions: Clostridioides difficile, ATCCBAA1382, MtzS, 24 h, median of at least n = 4
# Experimental: as §1, §2, §3
# [3] = test system: G. lamblia BRIS/87/HEPU/713 (713); assay: ATP-bioluminescence growth and survival assay, G. lamblia 713; assay type: cell-based; conditions: Giardia duodenalis, read-out: EC50 G. lamblia 713
# Experimental: (§4) Compounds were tested for antiparasitic activity against E. histolytica (HM1:1MSS strain) and G. lamblia (WB, BRIS/87/HEPU/713 (713), BRIS/83/HEPU/106 (106) and the metronidazole resistant syngeneic line 713-M3 [[15,16]]) using an ATP-bioluminescence based screen for cell growth and survival [[17,18]]. Assay plates were inoculated with trophozoites (5 × 10^3 parasites/well) and incubated in the GasPak™ EZ Anaerobe Gas Generating Pouch Systems (VWR, West Chester, PA) to maintain anaerobic conditions throughout the incubation period. The assays were performed in triplicate using the CellTiter-Glo Luminescent Cell Viability Assay. Metronidazole was used as a positive control.
# (§5) Trophozoites of E. histolytica strain HM1:IMSS and G. lamblia strains WB, BRIS/87/HEPU/713 (713),^10 BRIS/83/HEPU/106 (106)^11 and the metronidazole resistant syngenic line 713-M3^10,11 were axenically maintained in TYI-S-33 medium supplemented with penicillin (100 U/ml), streptomycin (100 µg/ml).^12 E. histolytica and G. lamblia trophozoites were counted using a particle counter (Beckman Coulter, Fullerton, CA). All experiments were performed using trophozoites harvested during the logarithmic phase of growth.
# (§6) A three-fold serial dilution was then performed yielding a concentration range 0.25-625 µM. From this dilution plate, 4 µL were transferred into the 96-well screen plates followed by addition of 96 µL of trophozoites (5,000 parasites) to yield a final 8-point concentration range spanning 0.01- 25 µM. Assay plates were incubated for 48 h at 37 °C in the GasPak^TM EZ Anaerobe Gas Generating Pouch Systems (VWR, West Chester, PA) to maintain anaerobic condition throughout the incubation period. The assays were performed in triplicate using the CellTiter-Glo Luminescent Cell Viability Assay.^13
# [4] = test system: E. histolytica HM1:IMSS trophozoites; assay: ATP-bioluminescence growth and survival assay, E. histolytica; assay type: cell-based, Entamoeba histolytica; conditions: Entamoeba histolytica; MtzS, 48 h, anaerobic, n = 3
# Experimental: as §4, §5, §6
# [5] = test system: C. difficile NAP1/027 CD26A54_R; assay: MIC broth microdilution, metronidazole resistant C. difficile CD26A54_R; assay type: cell-based, Clostridium difficile; conditions: Clostridioides difficile
# [6] = test system: G. lamblia WB trophozoites; assay: ATP-bioluminescence growth and survival assay, G. lamblia WB; assay type: cell-based, Giardia lamblia; conditions: Giardia duodenalis; MtzS, 48 h, anaerobic, n = 3
# Experimental: as §4, §5, §6
# [7] = test system: C. difficile NAP1/027 M7404; assay: MIC broth microdilution, C. difficile NAP1/027 M7404; assay type: cell-based, Clostridium difficile; conditions: Clostridioides difficile, NAP1/027M7404; NAP1/027 (footnote d: M7404), MtzS, 24 h, median of at least n = 4
# Experimental: as §1, §2, §3
# [8] = 24 hr incubation, read-out: MIC C. difficile NAP1/027 CD26A54_R 24 hr
# [9] = CD26A54_R, MtzR, 48 h growth, BHIS broth, n = 8, read-out: MIC C. difficile NAP1/027 CD26A54_R 48 h
structure (smiles),measurement,setting,value
"Cc1ccc(-c2cn(CCn3c([N+](=O)[O-])cnc3C)nn2)cc1 [Compound 4e, 1-(2-(2-methyl-5-nitro-1H-imidazol-1-yl)ethyl)-4-(p-tolyl)-1H-1,2,3-triazole]",MIC,[1],0.25 µg/mL
same,MIC,[2],0.5 µg/mL
same,EC50,[3],290 nM
same,EC50,[4],3700 nM
same,MIC,[5]; [8],2 µg/mL
same,MIC,[5]; [9],2 µg/mL
same,EC50,[6],180 nM
same,MIC,[7],0.5 µg/mL
"Cc1ncc([N+](=O)[O-])n1CCn1cc(-c2ccccc2)nn1 [Compound 4a, 1-(2-(2-methyl-5-nitro-1H-imidazol-1-yl)ethyl)-4-phenyl-1H-1,2,3-triazole]",MIC,[1],0.25 to 0.5 µg/mL
same,MIC,[2],0.5 µg/mL
same,EC50,[3],160 nM
same,EC50,[4],4200 nM
same,MIC,[5]; [8],2 µg/mL
same,MIC,[5]; [9],2 µg/mL
same,EC50,[6],250 nM
same,MIC,[7],0.5 µg/mL
"COc1ccc(-c2cn(CCn3c([N+](=O)[O-])cnc3C)nn2)cc1 [Compound 4b, 1-(2-(2-methyl-5-nitro-1H-imidazol-1-yl)ethyl)-4-(4-methoxyphenyl)-1H-1,2,3-triazole]",MIC,[1],0.25 to 0.5 µg/mL
same,MIC,[2],0.5 µg/mL
same,EC50,[3],640 nM
same,EC50,[4],4800 nM
same,MIC,[5]; [8],4 µg/mL
same,MIC,[5]; [9],4 µg/mL
same,EC50,[6],270 nM
same,MIC,[7],0.5 µg/mL
"Cc1ncc([N+](=O)[O-])n1CCn1cc(-c2ccccn2)nn1 [Compound 4h, 1-(2-(2-methyl-5-nitro-1H-imidazol-1-yl)ethyl)-4-(2-pyridinyl)-1H-1,2,3-triazole.xTFA]",MIC,[1],0.5 µg/mL
same,MIC,[2],0.5 µg/mL
same,EC50,[3],280 nM
same,EC50,[4],4600 nM
same,MIC,[5]; [8],2 µg/mL
same,MIC,[5]; [9],4 µg/mL
same,EC50,[6],740 nM
same,MIC,[7],0.5 µg/mL
"Cc1ncc([N+](=O)[O-])n1CCn1cc(-c2ccsc2)nn1 [Compound 4n, 1-(2-(2-methyl-5-nitro-1H-imidazol-1-yl)ethyl)-4-(thiophen-3-yl)-1H-1,2,3-triazole]",MIC,[1],0.25 to 0.5 µg/mL
same,MIC,[2],0.5 µg/mL
same,EC50,[3],180 nM
same,EC50,[4],3800 nM
same,MIC,[5]; [8],2 µg/mL
same,MIC,[5]; [9],2 µg/mL
same,EC50,[6],370 nM
same,MIC,[7],0.5 µg/mL
"Cc1ncc([N+](=O)[O-])n1CCn1cc(-c2ccc(Cl)c(Cl)c2)nn1 [Compound 4d, 1-(2-(2-methyl-5-nitro-1H-imidazol-1-yl)ethyl)-4-(3,4-dichlorophenyl)-1H-1,2,3-triazole]",MIC,[1],0.5 to 1 µg/mL
same,MIC,[2],0.5 µg/mL
same,EC50,[3],2500 nM
same,EC50,[4],5200 nM
same,MIC,[5]; [8],8 to 16 µg/mL
same,MIC,[5]; [9],8 to 16 µg/mL
same,EC50,[6],390 nM
same,MIC,[7],1 µg/mL
"Cc1ncc([N+](=O)[O-])n1CCn1cc(CN(C)Cc2ccccc2)nn1 [Compound 4m, 1-(2-(2-methyl-5-nitro-1H-imidazol-1-yl)ethyl)-4-(N-benzyl, N-methylaminomethyl)-1H-1,2,3-triazole]",MIC,[1],1 to 2 µg/mL
same,MIC,[2],2 µg/mL
same,EC50,[3],710 nM
same,EC50,[4],4600 nM
same,MIC,[5]; [8],8 µg/mL
same,MIC,[5]; [9],8 µg/mL
same,EC50,[6],1600 nM
same,MIC,[7],2 µg/mL
"Cc1ncc([N+](=O)[O-])n1CCn1cc(C(O)c2ccccc2)nn1 (stereo not drawn) [Compound 4l, 1-(2-(2-methyl-5-nitro-1H-imidazol-1-yl)ethyl)-4-(1-phenyl-1-hydroxylmethyl)-1H-1,2,3-triazole]",MIC,[1],0.5 µg/mL
same,MIC,[2],1 µg/mL
same,EC50,[3],2400 nM
same,EC50,[4],> 25000 nM
same,MIC,[5]; [8],4 µg/mL
same,MIC,[5]; [9],4 µg/mL
same,EC50,[6],4400 nM
same,MIC,[7],0.5 to 1 µg/mL
"COC(=O)c1cn(CCn2c([N+](=O)[O-])cnc2C)nn1 [Compound 4f, 1-(2-(2-methyl-5-nitro-1H-imidazol-1-yl)ethyl)-4-(methoxycarbonyl)-1H-1,2,3-triazole]",MIC,[1],1 µg/mL
same,MIC,[2],1 µg/mL
same,EC50,[3],1800 nM
same,EC50,[4],> 25000 nM
same,MIC,[5]; [8],4 µg/mL
same,MIC,[5]; [9],4 µg/mL
same,EC50,[6],3000 nM
same,MIC,[7],1 µg/mL
